# Experimental data reported in US20190231768A1, “P[…] TREATING DRUG INDUCED DYSKINESIAS” (PRILENIA THERAPEUTICS DEVELOPMENT LTD., priority 2017, published 2019).
# Where two headings read alike, the source gives them in different places.
# Legend:
# HD patients = conditions: cited from earlier work; for TMS change from baseline vs placebo: HD stage 1 (baseline TFC≥11), post hoc
# σ1R [1] = target: T1, σ1R (Homo sapiens, UniProt Q99720); conditions: human 67.5 mg bid; based on human PET data and PK profile
# T1 sequence (Q99720 whole entry): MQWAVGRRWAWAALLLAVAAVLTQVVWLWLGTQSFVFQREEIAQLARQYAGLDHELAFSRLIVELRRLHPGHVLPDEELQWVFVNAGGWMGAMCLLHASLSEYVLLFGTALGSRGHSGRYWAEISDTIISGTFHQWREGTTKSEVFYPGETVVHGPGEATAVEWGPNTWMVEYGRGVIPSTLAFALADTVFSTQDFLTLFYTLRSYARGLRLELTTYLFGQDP
# [2] = system: human subject afflicted with LID; conditions: greater than 100 mg/day oral, add-on to levodopa
# Description: The therapy provides efficacy in treating the patient without undue adverse side effects or affecting the safety of the treatment: […]
# D2R [3] = target: T2, D2R (Homo sapiens, UniProt P14416); experiment: in vivo; conditions: read-out: % D2R occupancy
# T2 sequence (P14416 whole entry): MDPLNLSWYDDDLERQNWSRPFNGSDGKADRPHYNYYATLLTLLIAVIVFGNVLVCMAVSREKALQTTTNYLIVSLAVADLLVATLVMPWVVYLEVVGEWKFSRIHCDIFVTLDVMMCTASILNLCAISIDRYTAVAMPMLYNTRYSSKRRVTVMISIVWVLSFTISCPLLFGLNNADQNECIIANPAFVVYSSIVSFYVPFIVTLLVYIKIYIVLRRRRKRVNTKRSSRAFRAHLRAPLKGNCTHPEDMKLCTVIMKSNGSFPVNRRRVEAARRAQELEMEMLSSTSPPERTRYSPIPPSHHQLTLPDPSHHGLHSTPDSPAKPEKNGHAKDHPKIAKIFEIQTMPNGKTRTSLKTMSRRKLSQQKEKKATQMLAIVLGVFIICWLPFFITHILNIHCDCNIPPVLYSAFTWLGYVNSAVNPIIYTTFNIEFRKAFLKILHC
# Serotonin 5-HT7 = Serotonin 5-HT7 (Homo sapiens, UniProt P34969)
# Chain of Serotonin 5-HT7 (P34969 whole entry): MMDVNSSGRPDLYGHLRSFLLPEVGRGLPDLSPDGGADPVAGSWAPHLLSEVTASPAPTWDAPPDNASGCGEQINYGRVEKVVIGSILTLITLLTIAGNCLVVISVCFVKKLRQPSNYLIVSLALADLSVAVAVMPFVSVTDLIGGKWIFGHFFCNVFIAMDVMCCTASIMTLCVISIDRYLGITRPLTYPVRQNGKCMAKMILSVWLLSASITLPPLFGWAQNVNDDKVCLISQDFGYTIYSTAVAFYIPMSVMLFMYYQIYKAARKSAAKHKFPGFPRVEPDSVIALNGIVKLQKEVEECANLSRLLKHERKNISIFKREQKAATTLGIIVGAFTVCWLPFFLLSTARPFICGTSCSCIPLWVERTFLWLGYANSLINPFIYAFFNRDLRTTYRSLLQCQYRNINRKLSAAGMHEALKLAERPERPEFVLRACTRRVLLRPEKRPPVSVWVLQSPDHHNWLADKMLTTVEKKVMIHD
# Method: (§1) NMDA, 5-HT6 and tachykinin NK1 receptors along with the dopamine transporter (DAT), norepinephrine transporter (NET) and serotonin transporter (SERT). The specific ligand binding to the receptors was defined as the difference between the total binding and the nonspecific binding determined in the presence of an excess of unlabeled ligand. IC50 values were determined by a non-linear, least squares regression analysis using MathIQ™ (ID Business Solutions Ltd., UK). […] Hill coefficient (nH), defining the slope of the competitive binding curve, was calculated using MathIQ™.
# Sigma-1 (σ1R) = Sigma-1 (σ1R) (Homo sapiens, UniProt Q99720)
# Chain of Sigma-1 (σ1R) (Q99720 whole entry, species assumed): as the sequence (Q99720 whole entry) above
# Method: as §1
# 5-HT6 = 5-HT6 (Homo sapiens, UniProt P50406)
# Chain of 5-HT6 (P50406 whole entry, species assumed): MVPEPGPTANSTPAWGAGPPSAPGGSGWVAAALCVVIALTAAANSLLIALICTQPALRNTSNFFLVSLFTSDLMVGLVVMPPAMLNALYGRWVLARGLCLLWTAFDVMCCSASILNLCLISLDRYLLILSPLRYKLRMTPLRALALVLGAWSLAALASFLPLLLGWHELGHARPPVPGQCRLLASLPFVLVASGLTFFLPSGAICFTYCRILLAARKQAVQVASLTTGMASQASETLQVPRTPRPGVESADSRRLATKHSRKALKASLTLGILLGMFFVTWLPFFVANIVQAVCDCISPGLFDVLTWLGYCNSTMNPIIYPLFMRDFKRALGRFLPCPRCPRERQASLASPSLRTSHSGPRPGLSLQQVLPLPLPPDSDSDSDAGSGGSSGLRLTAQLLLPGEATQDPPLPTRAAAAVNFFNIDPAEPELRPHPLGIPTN
# Method: as §1
# Serotonin 5-HT1A = Serotonin 5-HT1A (Homo sapiens, UniProt P08908)
# Chain of Serotonin 5-HT1A (P08908 whole entry): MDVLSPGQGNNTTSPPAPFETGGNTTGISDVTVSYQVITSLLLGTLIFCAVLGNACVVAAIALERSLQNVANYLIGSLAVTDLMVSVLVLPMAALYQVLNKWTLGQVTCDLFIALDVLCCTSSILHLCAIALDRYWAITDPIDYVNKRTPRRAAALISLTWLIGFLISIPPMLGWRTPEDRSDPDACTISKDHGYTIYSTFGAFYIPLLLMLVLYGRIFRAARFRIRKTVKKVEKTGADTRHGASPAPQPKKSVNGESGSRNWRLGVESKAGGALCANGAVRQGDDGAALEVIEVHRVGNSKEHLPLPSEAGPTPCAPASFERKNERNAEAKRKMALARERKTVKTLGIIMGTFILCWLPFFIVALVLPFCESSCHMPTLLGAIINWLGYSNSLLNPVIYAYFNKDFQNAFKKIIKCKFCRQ
# Method: as §1
# Dopamine D3 = Dopamine D3 (Homo sapiens, UniProt P35462)
# Method: as §1
# adrenergic alpha-1 = conditions: in the micromolar range
# Method: as §1
# [4] = target: Dopamine transporter (DAT) (Homo sapiens, UniProt Q01959)
# Method: as §1
# Adrenergic α2C = Adrenergic α2C (Homo sapiens, UniProt P18825)
# Chain of Adrenergic α2C (P18825 whole entry): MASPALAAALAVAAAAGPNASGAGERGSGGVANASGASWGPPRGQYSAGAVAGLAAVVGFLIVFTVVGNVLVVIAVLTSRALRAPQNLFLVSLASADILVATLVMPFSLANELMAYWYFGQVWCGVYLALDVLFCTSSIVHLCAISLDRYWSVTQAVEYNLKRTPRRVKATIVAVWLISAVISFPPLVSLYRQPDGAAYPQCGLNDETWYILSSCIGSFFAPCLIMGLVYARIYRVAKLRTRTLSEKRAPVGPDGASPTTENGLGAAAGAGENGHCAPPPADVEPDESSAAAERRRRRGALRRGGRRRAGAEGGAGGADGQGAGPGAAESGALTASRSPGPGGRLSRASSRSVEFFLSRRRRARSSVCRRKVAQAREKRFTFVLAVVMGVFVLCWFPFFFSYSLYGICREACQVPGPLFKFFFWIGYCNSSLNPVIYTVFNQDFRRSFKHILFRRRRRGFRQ
# Method: as §1
# Dopamine D2 = Dopamine D2 (Homo sapiens, UniProt P14416)
# Chain of Dopamine D2 (P14416 whole entry): as the sequence (P14416 whole entry) above
# Method: as §1
# NMDAR = system: NMDAR
# Method: as §1
# Sigma-2 (σ2R) = Sigma-2 (σ2R) (Homo sapiens, UniProt Q5BJF2)
# Chain of Sigma-2 (σ2R) (Q5BJF2 whole entry): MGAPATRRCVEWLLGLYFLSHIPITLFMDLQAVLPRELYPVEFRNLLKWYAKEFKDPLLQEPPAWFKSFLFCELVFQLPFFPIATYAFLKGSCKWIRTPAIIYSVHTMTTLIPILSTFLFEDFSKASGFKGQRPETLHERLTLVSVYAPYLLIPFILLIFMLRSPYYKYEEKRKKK
# Method: as §1
# Muscarinic M2 = Muscarinic M2 (Homo sapiens, UniProt P08172)
# Chain of Muscarinic M2 (P08172 whole entry): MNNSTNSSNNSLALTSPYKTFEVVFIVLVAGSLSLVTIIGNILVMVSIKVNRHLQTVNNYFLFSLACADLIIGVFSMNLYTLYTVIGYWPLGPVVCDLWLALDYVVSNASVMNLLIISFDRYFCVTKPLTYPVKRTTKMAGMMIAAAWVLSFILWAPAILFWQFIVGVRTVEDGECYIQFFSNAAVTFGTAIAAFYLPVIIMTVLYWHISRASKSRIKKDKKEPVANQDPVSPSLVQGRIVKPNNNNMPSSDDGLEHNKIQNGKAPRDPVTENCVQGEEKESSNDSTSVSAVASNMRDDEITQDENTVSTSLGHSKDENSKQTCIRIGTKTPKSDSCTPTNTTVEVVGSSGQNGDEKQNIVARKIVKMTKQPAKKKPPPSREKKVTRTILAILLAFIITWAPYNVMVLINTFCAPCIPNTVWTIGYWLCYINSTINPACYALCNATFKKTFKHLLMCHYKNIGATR
# Method: as §1
# Serotonin 5-HT2A = Serotonin 5-HT2A (Homo sapiens, UniProt P28223)
# Method: as §1
# [5] = target: Serotonin transporter (SERT) (Homo sapiens, UniProt P31645)
# Chain of Serotonin transporter (SERT) (P31645 whole entry, species assumed): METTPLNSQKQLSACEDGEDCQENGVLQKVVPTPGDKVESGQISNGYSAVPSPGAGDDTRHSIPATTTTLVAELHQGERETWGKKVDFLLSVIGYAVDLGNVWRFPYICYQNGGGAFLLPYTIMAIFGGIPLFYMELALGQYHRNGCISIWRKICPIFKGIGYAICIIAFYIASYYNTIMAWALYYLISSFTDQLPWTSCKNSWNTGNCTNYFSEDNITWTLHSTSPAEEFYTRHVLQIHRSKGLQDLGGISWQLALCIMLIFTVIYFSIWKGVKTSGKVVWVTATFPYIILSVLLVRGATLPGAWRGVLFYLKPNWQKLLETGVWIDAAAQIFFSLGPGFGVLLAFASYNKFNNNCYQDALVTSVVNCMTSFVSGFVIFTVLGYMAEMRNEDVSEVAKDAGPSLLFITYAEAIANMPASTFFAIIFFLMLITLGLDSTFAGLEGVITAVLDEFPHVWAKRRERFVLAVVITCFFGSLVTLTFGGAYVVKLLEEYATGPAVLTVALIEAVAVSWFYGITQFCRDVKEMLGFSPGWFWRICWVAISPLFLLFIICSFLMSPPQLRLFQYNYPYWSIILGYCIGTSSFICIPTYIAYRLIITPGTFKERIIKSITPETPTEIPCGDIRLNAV
# Method: as §1
# Tachykinin NK1 = Tachykinin NK1 (Homo sapiens, UniProt P25103)
# Method: as §1
# [6] = target: Norepinephrine transporter (NET) (Homo sapiens, UniProt P23975)
# Method: as §1
# Histamine H3 = Histamine H3 (Homo sapiens, UniProt Q9Y5N1)
# Method: as §1
# Adrenergic α2A = Adrenergic α2A (Homo sapiens, UniProt P08913)
# Chain of Adrenergic α2A (P08913 whole entry): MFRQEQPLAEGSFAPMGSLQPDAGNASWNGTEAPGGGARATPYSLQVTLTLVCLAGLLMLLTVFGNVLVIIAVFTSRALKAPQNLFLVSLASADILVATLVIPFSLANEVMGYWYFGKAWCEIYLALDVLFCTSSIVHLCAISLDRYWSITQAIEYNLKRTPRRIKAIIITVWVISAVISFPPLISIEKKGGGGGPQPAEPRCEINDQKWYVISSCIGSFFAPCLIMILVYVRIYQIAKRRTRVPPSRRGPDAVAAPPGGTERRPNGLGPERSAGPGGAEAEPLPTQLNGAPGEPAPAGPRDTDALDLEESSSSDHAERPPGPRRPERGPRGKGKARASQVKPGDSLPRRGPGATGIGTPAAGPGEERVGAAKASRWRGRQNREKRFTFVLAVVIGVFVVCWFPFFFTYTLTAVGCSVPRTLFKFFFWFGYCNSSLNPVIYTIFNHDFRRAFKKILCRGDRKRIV
# Method: as §1
# D2R [7] = target: T2, D2R; conditions: human 67.5 mg bid; based on human PET data and PK profile
# [8] = system: human subject afflicted with a DIMD; conditions: 45, 90, 135 or 180 mg/day oral, add-on
# D2R [9] = target: D2R (Rattus norvegicus, UniProt P61169); experiment: in vivo; conditions: po, read-out: % D2R occupancy
# Chain of D2R (Rattus norvegicus, UniProt P61169) (P61169 whole entry): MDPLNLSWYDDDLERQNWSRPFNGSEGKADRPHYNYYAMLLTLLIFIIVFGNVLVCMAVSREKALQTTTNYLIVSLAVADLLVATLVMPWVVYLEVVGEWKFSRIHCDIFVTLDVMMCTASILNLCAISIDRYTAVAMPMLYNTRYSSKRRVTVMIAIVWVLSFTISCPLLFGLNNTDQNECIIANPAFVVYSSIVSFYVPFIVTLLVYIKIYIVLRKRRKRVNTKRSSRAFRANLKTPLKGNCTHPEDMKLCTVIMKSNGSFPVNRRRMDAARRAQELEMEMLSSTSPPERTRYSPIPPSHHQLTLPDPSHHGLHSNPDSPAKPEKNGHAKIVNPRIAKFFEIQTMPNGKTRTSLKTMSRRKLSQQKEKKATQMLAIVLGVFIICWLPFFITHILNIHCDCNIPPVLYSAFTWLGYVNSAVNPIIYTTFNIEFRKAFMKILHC
# Description: (§2) NHP σ1R occupancy data are extrapolated from in vitro binding investigations with 3H-fluspidine, known and specific σ1R tracer, against human σ1R.
# σ1R [10] = target: T1, σ1R; experiment: in vivo
# Description: as §2
# σ1R [11] = target: T1, σ1R; experiment: in vivo; conditions: read-out: % σ1R occupancy
structure (smiles),measurement,setting,value
"CCCN1CCC(c2cccc(S(C)(=O)=O)c2)CC1 [pridopidine, 4-(3-(methylsulfonyl)phenyl)-1-propylpiperidine]",difference in TFC score decline vs placebo,"HD patients; 45 mg bid, 52 weeks, nominal p=0.003",0.87 (95% confidence interval: 0.29-1.45)
same,TMS change from baseline vs placebo,"HD patients; 45 mg bid, weeks 26 or 52",trend towards improvement
same,TMS change from baseline vs placebo,"HD patients; 112.5 mg bid, 52 weeks",no improvement
same,TFC decline,HD patients; high dose (>90 mg bid),failed to show improvement
same,TMS efficacy compared to placebo or the 45 mg bid dose,HD patients; high doses (≥67.5 bid),none of the high doses of pridopidine (≥67.5 bid) showed improved efficacy
same,S1R occupancy (estimated),σ1R [1],fully occupy the S1Rs
same,anti-parkinsonian benefit of L-DOPA,[2],does not affect the anti-parkinsonian benefit of L-DOPA
same,bad quality on-time evoked by levodopa,[2],improves the bad quality on-time
same,symptoms of dyskinesia,[2],effective in improving symptoms of dyskinesia
same,receptor occupancy at 45 mg,D2R [3],~3%
same,receptor occupancy at 90 mg,D2R [3],~30%
same,receptor occupancy at 150 mg,D2R [3],> 40%
same,nH (Hill coefficient),Serotonin 5-HT7,1.02
same,nH (Hill coefficient),Sigma-1 (σ1R),0.87
same,affinity for S1R compared to Dopamine D2R,Sigma-1 (σ1R); S1R vs D2R,approximately 100 fold
same,binding,5-HT6,no observed binding
same,nH (Hill coefficient),Serotonin 5-HT1A,0.72
same,nH (Hill coefficient),Dopamine D3,0.90
same,binding,adrenergic alpha-1,low-affinity binding
same,binding,[4],no observed binding
same,nH (Hill coefficient),Adrenergic α2C,0.76
same,binding against the dopamine D2 receptors,Dopamine D2,negligible or no binding
same,nH (Hill coefficient),Dopamine D2,0.94
same,binding,NMDAR,no observed binding
same,nH (Hill coefficient),Sigma-2 (σ2R),0.80
same,nH (Hill coefficient),Muscarinic M2,0.62
same,nH (Hill coefficient),Serotonin 5-HT2A,0.81
same,binding,[5],no observed binding
same,binding,Tachykinin NK1,no observed binding
same,binding,[6],no observed binding
same,nH (Hill coefficient),Histamine H3,0.85
same,nH (Hill coefficient),Adrenergic α2A,0.98
same,occupancy of the dopamine receptors (DARs) (estimated),D2R [7],minimal occupancy
same,symptoms of DIMD,[8],effective (provides at least an additive effect or more than an additive effect)
same,receptor occupancy at 60 mg/kg,D2R [9],45%
same,% σ1R occupancy,"σ1R [10]; NHP, 15 mg/kg PO, extrapolated from in vitro binding, 15 mg/kg",>80%
same,receptor occupancy at 7 mg/kg,"σ1R [10]; po, read-out: % σ1R occupancy, NHP, 7 mg/kg PO, extrapolated from in vitro binding",60 to 80%
same,receptor occupancy at 15 mg/kg,"σ1R [10]; po, read-out: % σ1R occupancy, NHP, 15 mg/kg PO, extrapolated from in vitro binding",> 85%
same,receptor occupancy at 20 mg/kg,"σ1R [10]; po, read-out: % σ1R occupancy, NHP, 20 mg/kg PO, extrapolated from in vitro binding",> 80%
same,receptor occupancy at 30 mg/kg,"σ1R [10]; po, read-out: % σ1R occupancy, NHP, 30 mg/kg PO, extrapolated from in vitro binding",> 80%
same,receptor occupancy at 30 mg/kg,"σ1R [10]; read-out: S1R occupancy (expected), high, effective dose (30 mg/kg, or 20 mg/kg in study 1)",> 80%
same,receptor occupancy at 20 mg/kg,"σ1R [10]; read-out: S1R occupancy (expected), low, ineffective doses (7 and 15 mg/kg (study 1), 20 mg/kg in study 2)",> 80%
same,receptor occupancy at 45 mg,σ1R [11],> 90%
same,receptor occupancy at 90 mg,σ1R [11],> 90%
same,receptor occupancy at 150 mg,σ1R [11],> 90%
